{
  "source": "patent US20110178064A1",
  "about": "“SPIRO CONDENSED […] DERIVATIVES FOR USE AS ANTIBACTERIAL” (A[…]&D, priority 2007, published 2011)",
  "data": [
    {"biological_target": "Escherichia coli DNA gyrase A/B tetramer (Escherichia coli, UniProt P0AES4+P0AES6)", "sequence (P0AES4 whole entry, one chain of several)": "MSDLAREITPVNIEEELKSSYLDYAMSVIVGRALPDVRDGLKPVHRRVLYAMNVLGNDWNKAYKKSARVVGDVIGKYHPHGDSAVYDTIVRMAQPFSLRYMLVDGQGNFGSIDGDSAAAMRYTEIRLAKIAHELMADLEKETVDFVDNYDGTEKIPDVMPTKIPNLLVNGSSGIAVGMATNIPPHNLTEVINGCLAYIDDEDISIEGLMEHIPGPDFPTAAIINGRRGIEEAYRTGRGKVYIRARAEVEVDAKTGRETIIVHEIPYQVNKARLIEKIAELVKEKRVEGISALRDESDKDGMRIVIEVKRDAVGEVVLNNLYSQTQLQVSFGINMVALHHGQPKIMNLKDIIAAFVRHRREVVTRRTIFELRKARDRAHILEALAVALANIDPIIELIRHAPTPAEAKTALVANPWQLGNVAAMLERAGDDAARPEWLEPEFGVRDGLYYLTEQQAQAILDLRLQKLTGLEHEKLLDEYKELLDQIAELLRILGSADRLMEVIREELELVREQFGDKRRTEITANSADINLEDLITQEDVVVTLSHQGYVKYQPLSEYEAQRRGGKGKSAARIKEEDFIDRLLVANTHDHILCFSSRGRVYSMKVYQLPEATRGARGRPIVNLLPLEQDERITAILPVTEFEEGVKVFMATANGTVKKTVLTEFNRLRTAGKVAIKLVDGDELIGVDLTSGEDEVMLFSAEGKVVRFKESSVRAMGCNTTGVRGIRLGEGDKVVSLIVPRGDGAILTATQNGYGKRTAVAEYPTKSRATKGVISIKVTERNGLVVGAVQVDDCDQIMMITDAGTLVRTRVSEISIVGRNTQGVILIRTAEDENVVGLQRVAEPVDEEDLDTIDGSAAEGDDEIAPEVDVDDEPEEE", "experiment": "DNA gyrase supercoiling activity fluorescence polarisation assay", "type": "biochemical", "procedure": "The supercoiling reactions may be quenched by the addition of 10 microliters/well of 40 nM oligodeoxynucleotide probe in 3× triplex-forming buffer consisting of 150 mM NaCl, and 150 mM sodium acetate at pH 3.5. The oligodeoxynucleotide probe may be 5′-BODIPY-FL-labeled […]. After 60 minutes, the fluorescence anisotropy of the BODIPY-FL may be measured in a Tecan Ultra plate reader, using 485 nm excitation and 535 nm emission filters equipped with polarizers. The IC50 may be determined by nonliner regression using two control reactions. The first contains no test compound but 0.8% DMSO (100% activity) while the second control reaction contains 5 uM Ciprofloxacin and 0.8% DMSO (0% activity).", "units": {"IC50": "µM"}, "values": [
      {"smiles": "Cc1ccc(-c2cnc3c(c2)CC2(C(=O)NC(=O)NC2=O)[C@H]2[C@H](C)O[C@H](C)CN32)s1", "note": "(relative stereo) [Example 29, (6aS,7S,9R)-rel-7,9-Dimethyl-3-(5-methylthiophen-2-yl)-6a,7,9,10-tetrahydro-2′H,5H-spiro[1,4oxazino[4,3-a][1,8]naphthyridine-6,5′-pyrimidine]-2′,4′,6′(1′H,3′H)-trione]", "IC50": 9},
      {"smiles": "Cc1ccsc1-c1cnc2c(c1)CC1(C(=O)NC(=O)NC1=O)[C@H]1[C@H](C)O[C@H](C)CN21", "note": "(relative stereo) [Example 30, (6aS,7S,9R)-rel-7,9-Dimethyl-3-(3-methylthiophen-2-yl)-6a,7,9,10-tetrahydro-2′H,5H-spiro[1,4-oxazino[4,3-a][1,8]naphthyridine-6,5′-pyrimidine]-2′,4′,6′(1′H,3′H)-trione]", "IC50": 12},
      {"smiles": "C[C@@H]1CN2c3ncc(-c4ccc(-c5nnn[nH]5)s4)cc3CC3(C(=O)NC(=O)NC3=O)[C@H]2[C@H](C)O1", "note": "(relative stereo) [Example 31, (6aS,7S,9R)-rel-7,9-Dimethyl-3-[5-(1H-tetrazol-5-yl)thiophen-2-yl]-6a,7,9,10-tetrahydro-2′H,5H-spiro[1,4-oxazino[4,3-a][1,8]naphthyridine-6,5′-pyrimidine]-2′,4′,6′(1′H,3′H)-trione]", "IC50": 6},
      {"smiles": "C[C@@H]1CN2c3ncc(-c4cn(C)cn4)cc3CC3(C(=O)NC(=O)NC3=O)[C@H]2[C@H](C)O1", "note": "(relative stereo) [Example 33, (6aS,7S,9R)-rel-7,9-Dimethyl-3-(1-methyl-1H-imidazol-4-yl)-6a,7,9,10-tetrahydro-2′H,5H-spiro[1,4-oxazino[4,3-a][1,8]naphthyridine-6,5′-pyrimidine]-2′,4′,6′(1′H,3′H)-trione]", "IC50": 48},
      {"smiles": "C[C@@H]1CN2c3ncc(-c4ncc[nH]4)cc3CC3(C(=O)NC(=O)NC3=O)[C@H]2[C@H](C)O1", "note": "(relative stereo) [Example 35, (6aS,7S,9R)-rel-3-(1H-Imidazol-2-yl)-7,9-dimethyl-6a,7,9,10-tetrahydro-2′H,5H-spiro[1,4-oxazino[4,3-a][1,8]naphthyridine-6,5′-pyrimidine]-2′,4′,6′(1′H,3′H)-trione]", "IC50": "> 40"},
      {"smiles": "C[C@@H]1CN2c3ncc(-c4ccc(-c5ccn[nH]5)s4)cc3CC3(C(=O)NC(=O)NC3=O)[C@H]2[C@H](C)O1", "note": "(relative stereo) [Example 36, (6aS,7S,9R)-rel-7,9-Dimethyl-3-[5-(1H-pyrazol-5-yl)thiophen-2-yl]-6a,7,9,10-tetrahydro-2′H,5H-spiro[1,4-oxazino[4,3-a][1,8]naphthyridine-6,5′-pyrimidine]-2′,4′,6′(1′H,3′H)-trione]", "IC50": 2},
      {"smiles": "C[C@@H]1CN2c3ncc(-c4c[nH]cn4)cc3CC3(C(=O)NC(=O)NC3=O)[C@H]2[C@H](C)O1", "note": "(relative stereo) [Example 37, (6aS,7S,9R)-rel-3-(1H-Imidazol-4-yl)-7,9-dimethyl-6a,7,9,10-tetrahydro-2′H,5H-spiro[1,4-oxazino[4,3-a][1,8]naphthyridine-6,5′-pyrimidine]-2′,4′,6′(1′H,3′H)-trione]", "IC50": 12},
      {"smiles": "C[C@@H]1CN2c3ncc(-c4ccccn4)cc3CC3(C(=O)NC(=O)NC3=O)[C@H]2[C@H](C)O1", "note": "(relative stereo) [Example 38, (6aS,7S,9R)-rel-7,9-Dimethyl-3-(pyridin-2-yl)-6a,7,9,10-tetrahydro-2′H,5H-spiro[1,4-oxazino[4,3-a][1,8]naphthyridine-6,5′-pyrimidine]-2′,4′,6′(1′H,3′H)-trione]", "IC50": 12},
      {"smiles": "C[C@@H]1CN2c3ncc(-c4nc5ccccc5[nH]4)cc3CC3(C(=O)NC(=O)NC3=O)[C@H]2[C@H](C)O1", "note": "(relative stereo) [Example 40, (6aS,7S,9R)-rel-3-(1H-Benzimidazol-2-yl)-7,9-dimethyl-6a,7,9,10-tetrahydro-2′H,5H-spiro[1,4-oxazino[4,3-a][1,8]naphthyridine-6,5′-pyrimidine]-2′,4′,6′(1′H,3′H)-trione]", "IC50": 6},
      {"smiles": "C[C@@H]1CN2c3ncc(-c4ccc(Cl)cn4)cc3CC3(C(=O)NC(=O)NC3=O)[C@H]2[C@H](C)O1", "note": "(relative stereo) [Example 42, (6aS,7S,9R)-rel-3-(5-chloropyridin-2-yl)-7,9-dimethyl-6a,7,9,10-tetrahydro-2′H,5H-spiro[1,4-oxazino[4,3-a][1,8]naphthyridine-6,5′-pyrimidine]-2′,4′,6′(1′H,3′H)-trione]", "IC50": 4},
      {"smiles": "COc1ccncc1-c1cnc2c(c1)CC1(C(=O)NC(=O)NC1=O)[C@H]1[C@H](C)O[C@H](C)CN21", "note": "(relative stereo) [Example 43, (6aS,7S,9R)-rel-3-(4-Methoxypyridin-3-yl)-7,9-dimethyl-6a,7,9,10-tetrahydro-2′H,5H-spiro[1,4-oxazino[4,3-a][1,8]naphthyridine-6,5′-pyrimidine]-2′,4′,6′(1′H,3′H)-trione]", "IC50": 12},
      {"smiles": "C[C@@H]1CN2c3ncc(-c4cncnc4)cc3CC3(C(=O)NC(=O)NC3=O)[C@H]2[C@H](C)O1", "note": "(relative stereo) [Example 45, (6aS,7S,9R)-rel-7,9-Dimethyl-3-(pyrimidin-5-yl)-6a,7,9,10-tetrahydro-2′H,5H-spiro[1,4-oxazino[4,3-a][1,8]naphthyridine-6,5′-pyrimidine]-2′,4′,6′(1′H,3′H)-trione]", "IC50": 30},
      {"smiles": "C[C@@H]1CN2c3ncc(-c4cccc5cccnc45)cc3CC3(C(=O)NC(=O)NC3=O)[C@H]2[C@H](C)O1", "note": "(relative stereo) [Example 47, (6aS,7S,9R)-rel-7,9-Dimethyl-3-(quinolin-8-yl)-6a,7,9,10-tetrahydro-2′H,5H-spiro[1,4-oxazino[4,3-a][1,8]naphthyridine-6,5′-pyrimidine]-2′,4′,6′(1′H,3′H)-trione]", "IC50": "> 83"},
      {"smiles": "C[C@@H]1CN2c3ncc(-c4ccoc4)cc3CC3(C(=O)NC(=O)NC3=O)[C@H]2[C@H](C)O1", "note": "(relative stereo) [Example 48, (6aS,7S,9R)-rel-3-(Furan-3-yl)-7,9-dimethyl-6a,7,9,10-tetrahydro-2′H,5H-spiro[1,4-oxazino[4,3-a][1,8]naphthyridine-6,5′-pyrimidine]-2′,4′,6′(1′H,3′H)-trione]", "IC50": 17},
      {"smiles": "Cc1noc(C)c1-c1cnc2c(c1)CC1(C(=O)NC(=O)NC1=O)[C@H]1[C@H](C)O[C@H](C)CN21", "note": "(relative stereo) [Example 49, (6aS,7S,9R)-rel-3-(3,5-Dimethylisoxazol-4-yl)-7,9-dimethyl-6a,7,9,10-tetrahydro-2′H,5H-spiro[1,4-oxazino[4,3-a][1,8]naphthyridine-6,5′-pyrimidine]-2′,4′,6′(1′H,3′H)-trione]", "IC50": 30},
      {"smiles": "C[C@@H]1CN2c3ncc(-c4ccncc4)cc3CC3(C(=O)NC(=O)NC3=O)[C@H]2[C@H](C)O1", "note": "(relative stereo) [Example 50, (6aS,7S,9R)-rel-7,9-Dimethyl-3-(pyridin-4-yl)-6a,7,9,10-tetrahydro-2′H,5H-spiro[1,4-oxazino[4,3-a][1,8]naphthyridine-6,5′-pyrimidine]-2′,4′,6′(1′H,3′H)-trione]", "IC50": 8},
      {"smiles": "C[C@@H]1CN2c3ncc(-c4cnccn4)cc3CC3(C(=O)NC(=O)NC3=O)[C@H]2[C@H](C)O1", "note": "(relative stereo) [Example 52, (6aS,7S,9R)-rel-7,9-Dimethyl-3-(pyrazin-2-yl)-6a,7,9,10-tetrahydro-2′H,5H-spiro[1,4-oxazino[4,3-a][1,8]naphthyridine-6,5′-pyrimidine]-2′,4′,6′(1′H,3′H)-trione]", "IC50": 5}
    ]}
  ]
}
